# From article PMC10893631, “Receptor-based pharmacophore modeling, molecular docking, synthesis and biological evaluation of novel VEGFR-2, FGFR-1, and BRAF multi-kinase inhibitors” (BMC Chemistry, 2024)
# Assays:
# Experiment in all cases: NCI SRB growth inhibition (single dose 10 µM / five-dose)
# Format in all cases: cell-based, human
# KM12 = details: Homo sapiens; for inhibition at 10 µM: KM12 (Colon cancer), read-out: GI%
# Method in brief: (§1)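 Cytotoxicity in the NCI panel of sixty human tumour lines was measured by sulforhodamine B protein staining. Each agent was tested in DMSO-derived dilutions at five concentrations, and TGI was read where treated absorbance equalled time-zero absorbance.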
# MDA-MB-231/ATCC = details: Homo sapiens; for inhibition at 10 µM: MDA-MB-231/ATCC (Breast cancer), read-out: GI%
# Method in brief: as §1
# CCRF-CEM = details: Homo sapiens; for inhibition at 10 µM: CCRF-CEM (Leukemia), read-out: GI%
# Method in brief: as §1
# OVCAR-8 = details: Homo sapiens; for inhibition at 10 µM: OVCAR-8 (Ovarian cancer), read-out: GI%
# Method in brief: as §1
# A549/ATCC = details: Homo sapiens; for inhibition at 10 µM: A549/ATCC (Non-small cell lung cancer), read-out: GI%
# Method in brief: as §1
# 786–0 = details: Homo sapiens; 786–0 (Renal cancer), 10 µM; read-out: GI%
# Method in brief: as §1
# RXF 393 = details: Homo sapiens; for inhibition at 10 µM: RXF 393 (Renal cancer), read-out: GI%
# Method in brief: as §1
# HCT-15 = details: Homo sapiens; for inhibition at 10 µM: HCT-15 (Colon cancer), read-out: GI%
# Method in brief: as §1
# HS 578 T = details: Homo sapiens; for inhibition at 10 µM: HS 578 T (Breast cancer), read-out: GI%
# Method in brief: as §1
# HCT-116 = details: Homo sapiens, HCT-116; for inhibition at 10 µM: read-out: GI%
# Method in brief: as §1
# ACHN = details: Homo sapiens; for inhibition at 10 µM: ACHN (Renal cancer), read-out: GI%
# Method in brief: as §1
# OVCAR-4 = details: Homo sapiens; for inhibition at 10 µM: OVCAR-4 (Ovarian cancer), read-out: GI%
# Method in brief: as §1
# A498 = details: Homo sapiens; for inhibition at 10 µM: A498 (Renal cancer), read-out: GI%
# Method in brief: as §1
# COLO 205 = details: Homo sapiens; for inhibition at 10 µM: COLO 205 (Colon cancer), read-out: GI%
# Method in brief: as §1
# K-562 = details: Homo sapiens, K562; for inhibition at 10 µM: K-562 (Leukemia), read-out: GI%
# Method in brief: as §1
# UACC-257 = details: Homo sapiens; for inhibition at 10 µM: UACC-257 (Melanoma), read-out: GI%
# Method in brief: as §1
# NCI/ADR-RES = details: Homo sapiens; for inhibition at 10 µM: NCI/ADR-RES (Ovarian cancer), read-out: GI%
# Method in brief: as §1
# CAKI-1 = details: Homo sapiens; for inhibition at 10 µM: CAKI-1 (Renal cancer), read-out: GI%
# Method in brief: as §1
# MALME-3 M = details: Homo sapiens; for inhibition at 10 µM: MALME-3 M (Melanoma), read-out: GI%
# Method in brief: as §1
# SK-MEL-28 = details: Homo sapiens; for inhibition at 10 µM: SK-MEL-28 (Melanoma), read-out: GI%
# Method in brief: as §1
# BT-549 = details: Homo sapiens; for inhibition at 10 µM: BT-549 (Breast cancer), read-out: GI%
# Method in brief: as §1
# IGROV1 = details: Homo sapiens, IGROV-1; for inhibition at 10 µM: IGROV1 (Ovarian cancer), read-out: GI%
# Method in brief: as §1
# SK-OV-3 = details: Homo sapiens; for inhibition at 10 µM: SK-OV-3 (Ovarian cancer), read-out: GI%
# Method in brief: as §1
# SNB-75 = details: Homo sapiens; for inhibition at 10 µM: SNB-75 (CNS cancer), read-out: GI%
# Method in brief: as §1
# SK-MEL-2 = details: Homo sapiens; for inhibition at 10 µM: SK-MEL-2 (Melanoma), read-out: GI%
# Method in brief: as §1
# MDA-MB-435 = details: Homo sapiens; for inhibition at 10 µM: MDA-MB-435 (Melanoma), read-out: GI%
# Method in brief: as §1
structure (smiles),measurement,setting,value
"COc1ccc(-c2nc3cc(C(=O)NN=Cc4ccccc4O)ccc3[nH]2)cc1 [8h, N'-(2-Hydroxybenzylidene)-2-(4-methoxyphenyl)-1H-benzo[d]imidazole-5-carbohydrazide]",inhibition at 10 µM,KM12,> 100%
same,GI50,"KM12; KM12, Colon cancer, five-dose",4.24 µM
same,inhibition at 10 µM,MDA-MB-231/ATCC,98.7%
same,GI50,"MDA-MB-231/ATCC; MDA-MB-231/ATCC, Breast cancer, five-dose",4.48 µM
same,inhibition at 10 µM,CCRF-CEM,94.3%
same,GI50,"CCRF-CEM; CCRF-CEM, Leukemia, five-dose",0.92 µM
same,inhibition at 10 µM,OVCAR-8,> 100%
same,GI50,"OVCAR-8; OVCAR-8, Ovarian cancer, five-dose",1.97 µM
same,inhibition at 10 µM,A549/ATCC,> 100%
same,GI50,"A549/ATCC; A549/ATCC, Non-small cell lung cancer, five-dose",3.03 µM
same,inhibition at 10 µM,786–0,> 100%
same,inhibition at 10 µM,RXF 393,> 100%
same,GI50,"RXF 393; RXF 393, Renal cancer, five-dose",6.29 µM
same,inhibition at 10 µM,HCT-15,> 100%
same,GI50,"HCT-15; HCT-15, Colon cancer, five-dose",1.25 µM
same,inhibition at 10 µM,HS 578 T,> 100%
same,GI50,"HS 578 T; HS 578 T, Breast cancer, five-dose",0.94 µM
same,GI50,HCT-116,4.93 µM
same,inhibition at 10 µM,HCT-116,> 100%
same,inhibition at 10 µM,ACHN,> 100%
same,GI50,"ACHN; ACHN, Renal cancer, five-dose",3.02 µM
same,inhibition at 10 µM,OVCAR-4,> 100%
same,GI50,"OVCAR-4; OVCAR-4, Ovarian cancer, five-dose",2.24 µM
same,inhibition at 10 µM,A498,54.5%
same,GI50,"A498; A498, Renal cancer, five-dose",9.21 µM
same,inhibition at 10 µM,COLO 205,> 100%
same,GI50,"COLO 205; COLO 205, Colon cancer, five-dose",2.9 µM
same,inhibition at 10 µM,K-562,99.5%
same,GI50,"K-562; K-562, Leukemia, five-dose",1.36 µM
same,inhibition at 10 µM,UACC-257,85%
same,GI50,"UACC-257; UACC-257, Melanoma, five-dose",6.32 µM
same,inhibition at 10 µM,NCI/ADR-RES,63.2%
same,GI50,"NCI/ADR-RES; NCI/ADR-RES, Ovarian cancer, five-dose",6.74 µM
same,inhibition at 10 µM,CAKI-1,> 100%
same,GI50,"CAKI-1; CAKI-1, Renal cancer, five-dose",1.78 µM
same,inhibition at 10 µM,MALME-3 M,> 100%
same,GI50,"MALME-3 M; MALME-3 M, Melanoma, five-dose",1.77 µM
same,inhibition at 10 µM,SK-MEL-28,> 100%
same,GI50,"SK-MEL-28; SK-MEL-28, Melanoma, five-dose",2.96 µM
same,inhibition at 10 µM,BT-549,> 100%
same,GI50,"BT-549; BT-549, Breast cancer, five-dose",6.99 µM
same,inhibition at 10 µM,IGROV1,> 100%
same,GI50,"IGROV1; IGROV1, Ovarian cancer, five-dose",2.26 µM
same,inhibition at 10 µM,SK-OV-3,> 100%
same,GI50,"SK-OV-3; SK-OV-3, Ovarian cancer, five-dose",7.3 µM
same,inhibition at 10 µM,SNB-75,95.6%
same,GI50,"SNB-75; SNB-75, CNS cancer, five-dose",0.39 µM
same,GI50,"SK-MEL-2; SK-MEL-2, Melanoma, five-dose",5.17 µM
same,inhibition at 10 µM,MDA-MB-435,> 100%
same,GI50,"MDA-MB-435; MDA-MB-435, Melanoma, five-dose",1.95 µM
"COc1ccc(-c2nc3cc(C(=O)NN=Cc4cc(OC)c(OC)c(OC)c4)ccc3[nH]2)cc1 [8n, 2-(4-Methoxyphenyl)-N'-(3,4,5-trimethoxybenzylidene)-1H-benzo[d]imidazole-5-carbohydrazide]",inhibition at 10 µM,KM12,13.8%
same,inhibition at 10 µM,MDA-MB-231/ATCC,7.37%
same,inhibition at 10 µM,CCRF-CEM,38.8%
same,inhibition at 10 µM,OVCAR-8,15%
same,inhibition at 10 µM,A549/ATCC,< 5%
same,inhibition at 10 µM,786–0,< 5%
same,inhibition at 10 µM,RXF 393,20.1%
same,inhibition at 10 µM,HCT-15,< 5%
same,inhibition at 10 µM,HS 578 T,37.7%
same,inhibition at 10 µM,HCT-116,23.4%
same,inhibition at 10 µM,ACHN,9.17%
same,inhibition at 10 µM,OVCAR-4,< 5%
same,inhibition at 10 µM,A498,< 5%
same,inhibition at 10 µM,COLO 205,33.7%
same,inhibition at 10 µM,K-562,23.7%
same,inhibition at 10 µM,UACC-257,25.6%
same,inhibition at 10 µM,NCI/ADR-RES,< 5%
same,inhibition at 10 µM,CAKI-1,23.8%
same,inhibition at 10 µM,MALME-3 M,76.8%
same,inhibition at 10 µM,SK-MEL-28,31.4%
same,inhibition at 10 µM,BT-549,< 5%
same,inhibition at 10 µM,IGROV1,< 5%
same,inhibition at 10 µM,SK-OV-3,20.2%
same,inhibition at 10 µM,SNB-75,< 5%
same,inhibition at 10 µM,MDA-MB-435,25%
"COc1cc(C=NNC(=O)c2ccc3[nH]c(-c4ccccc4)nc3c2)cc(OC)c1OC [8g, 2-Phenyl-N'-(3,4,5-trimethoxybenzylidene)-1H-benzo[d]imidazole-5-carbohydrazide]",inhibition at 10 µM,KM12,36.4%
same,inhibition at 10 µM,MDA-MB-231/ATCC,30.5%
same,inhibition at 10 µM,CCRF-CEM,62%
same,inhibition at 10 µM,OVCAR-8,48.7%
same,inhibition at 10 µM,A549/ATCC,29.3%
same,inhibition at 10 µM,786–0,27.8%
same,inhibition at 10 µM,RXF 393,30.8%
same,inhibition at 10 µM,HCT-15,38.4%
same,inhibition at 10 µM,HS 578 T,51%
same,inhibition at 10 µM,HCT-116,41.6%
same,inhibition at 10 µM,ACHN,33.8%
same,inhibition at 10 µM,OVCAR-4,21.9%
same,inhibition at 10 µM,A498,< 5%
same,inhibition at 10 µM,K-562,30.4%
same,inhibition at 10 µM,UACC-257,54.3%
same,inhibition at 10 µM,NCI/ADR-RES,< 5%
same,inhibition at 10 µM,CAKI-1,49.7%
same,inhibition at 10 µM,MALME-3 M,73.6%
same,inhibition at 10 µM,SK-MEL-28,40.4%
same,inhibition at 10 µM,BT-549,35.4%
same,inhibition at 10 µM,IGROV1,17%
same,inhibition at 10 µM,SNB-75,< 5%
same,inhibition at 10 µM,SK-MEL-2,21.8%
same,inhibition at 10 µM,MDA-MB-435,48.5%
"COc1ccc(C=NNC(=O)c2ccc3[nH]c(-c4ccc(Cl)cc4)nc3c2)cc1O [8s, 2-(4-Chlorophenyl)-N'-(3-hydroxy-4-methoxybenzylidene)-1H-benzo[d]imidazole-5-carbohydrazide]",inhibition at 10 µM,KM12,68.4%
same,inhibition at 10 µM,MDA-MB-231/ATCC,75.1%
same,inhibition at 10 µM,CCRF-CEM,> 100%
same,inhibition at 10 µM,OVCAR-8,43.2%
same,inhibition at 10 µM,A549/ATCC,7.66%
same,inhibition at 10 µM,786–0,52%
same,inhibition at 10 µM,RXF 393,69.1%
same,inhibition at 10 µM,HCT-15,23.3%
same,inhibition at 10 µM,HS 578 T,86.9%
same,inhibition at 10 µM,HCT-116,69.5%
same,inhibition at 10 µM,ACHN,< 5%
same,inhibition at 10 µM,OVCAR-4,20.8%
same,inhibition at 10 µM,A498,< 5%
same,inhibition at 10 µM,K-562,50.3%
same,inhibition at 10 µM,UACC-257,24.6%
same,inhibition at 10 µM,NCI/ADR-RES,< 5%
same,inhibition at 10 µM,CAKI-1,18.5%
same,inhibition at 10 µM,MALME-3 M,> 100%
same,inhibition at 10 µM,SK-MEL-28,70.8%
same,inhibition at 10 µM,BT-549,42.9%
same,inhibition at 10 µM,IGROV1,< 5%
same,inhibition at 10 µM,SNB-75,6.41%
same,inhibition at 10 µM,SK-MEL-2,76.1%
same,inhibition at 10 µM,MDA-MB-435,89.9%
"COc1ccc(OC)c(C=NNC(=O)c2ccc3[nH]c(-c4ccccc4)nc3c2)c1 [8f, N'-(2,5-Dimethoxybenzylidene)-2-phenyl-1H-benzo[d]imidazole-5-carbohydrazide]",inhibition at 10 µM,KM12,30.5%
same,inhibition at 10 µM,MDA-MB-231/ATCC,38%
same,inhibition at 10 µM,CCRF-CEM,80.5%
same,inhibition at 10 µM,OVCAR-8,52.6%
same,inhibition at 10 µM,A549/ATCC,17.2%
same,inhibition at 10 µM,786–0,18.6%
same,inhibition at 10 µM,RXF 393,50%
same,inhibition at 10 µM,HCT-15,65.2%
same,inhibition at 10 µM,HS 578 T,49.9%
same,inhibition at 10 µM,HCT-116,52.5%
same,inhibition at 10 µM,ACHN,36.5%
same,inhibition at 10 µM,OVCAR-4,37.8%
same,inhibition at 10 µM,A498,< 5%
same,inhibition at 10 µM,K-562,63%
same,inhibition at 10 µM,UACC-257,< 5%
same,inhibition at 10 µM,NCI/ADR-RES,24.5%
same,inhibition at 10 µM,CAKI-1,41.5%
same,inhibition at 10 µM,MALME-3 M,40.5%
same,inhibition at 10 µM,SK-MEL-28,29.1%
same,inhibition at 10 µM,BT-549,38.2%
same,inhibition at 10 µM,IGROV1,11%
same,inhibition at 10 µM,SNB-75,< 5%
same,inhibition at 10 µM,SK-MEL-2,16.7%
same,inhibition at 10 µM,MDA-MB-435,73.7%
